{"source": "patent EP3035931B1", "about": "“COMPOSITION FOR REDUCING NERVOUS SYSTEM INJURY AND METHOD OF MAKING AND USE THEREOF” (Morehouse School of Medicine, priority 2013, dated 2015)", "key": {"ASIC1a channel": {"target": "T1, ASIC1a channel (Mus musculus, UniProt Q6NXK8)", "T1 construct": "endogenous in cells", "T1 sequence (Q6NXK8 1-526)": "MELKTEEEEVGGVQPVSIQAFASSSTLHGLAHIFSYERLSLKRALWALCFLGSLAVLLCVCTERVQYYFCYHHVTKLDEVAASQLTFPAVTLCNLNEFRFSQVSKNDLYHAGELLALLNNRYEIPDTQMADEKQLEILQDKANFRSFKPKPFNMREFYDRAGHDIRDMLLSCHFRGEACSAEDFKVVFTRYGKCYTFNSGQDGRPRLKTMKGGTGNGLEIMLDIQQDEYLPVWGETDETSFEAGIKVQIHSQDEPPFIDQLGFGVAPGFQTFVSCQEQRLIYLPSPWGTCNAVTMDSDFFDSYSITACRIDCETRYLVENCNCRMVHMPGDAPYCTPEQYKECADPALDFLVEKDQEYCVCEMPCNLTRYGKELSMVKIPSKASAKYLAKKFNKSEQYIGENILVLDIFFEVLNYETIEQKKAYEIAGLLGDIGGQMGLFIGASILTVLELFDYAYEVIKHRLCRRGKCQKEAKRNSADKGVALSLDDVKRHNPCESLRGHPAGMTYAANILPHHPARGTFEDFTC", "assay": "Table 1, inhibition in neurons", "format": "cell-based", "description": "ASIC currents were recorded with whole-cell patch-clamp and fast-perfusion techniques. […] For low pH solutions, various amounts of HCl were added. For solutions with pH<6.0, MES instead of HEPES was used for more reliable pH buffering. Patch electrodes contained (in mM) 140 CsF, 2.0 MgCl2, 1.0 CaC2, 10 HEPES, 11 EGTA, 4 MgATP (pH 7.3), 300 mOsm. […] A multibarrel perfusion system (SF-77B, Warner Instrument Co.) was employed for rapid exchange of solutions."}, "[1]": {"assay": "Mouse 60 min MCAO, intracerebroventricular injection one hour after MCAO, infarct volume", "details": "mice, evaluated one day after ischemia induction, FIG. 18"}, "ASIC2a": {"target": "T2, ASIC2a (Homo sapiens, UniProt Q16515)", "T2 construct": "expressed in transfected cells; host or cells: CHO", "T2 sequence (Q16515 1-512)": "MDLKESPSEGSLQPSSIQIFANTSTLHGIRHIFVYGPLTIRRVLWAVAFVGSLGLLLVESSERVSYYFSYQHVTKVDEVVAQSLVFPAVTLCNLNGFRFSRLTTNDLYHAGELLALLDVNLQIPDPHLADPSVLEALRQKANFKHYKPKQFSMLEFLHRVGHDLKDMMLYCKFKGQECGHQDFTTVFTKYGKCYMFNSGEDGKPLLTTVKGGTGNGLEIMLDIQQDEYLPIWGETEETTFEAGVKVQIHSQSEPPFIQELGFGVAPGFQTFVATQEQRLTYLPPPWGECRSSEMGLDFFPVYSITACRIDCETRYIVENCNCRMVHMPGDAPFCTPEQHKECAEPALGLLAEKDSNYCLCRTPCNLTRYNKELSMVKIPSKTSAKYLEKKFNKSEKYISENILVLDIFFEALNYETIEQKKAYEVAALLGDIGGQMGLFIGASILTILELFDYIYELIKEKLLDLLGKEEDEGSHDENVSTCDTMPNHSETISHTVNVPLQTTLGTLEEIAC", "assay": "Blockade of ASIC 2a current expressed in CHO cells", "format": "cell-based"}, "Knockout 1a": {"system": "Knockout 1a", "assay": "Table 1, inhibition in Knockout 1a", "format": "cell-based"}, "Knockout 2a": {"system": "Knockout 2a", "assay": "Table 1, inhibition in Knockout 2a", "format": "cell-based"}, "ASIC1a [2]": {"target": "T3, ASIC1a (Homo sapiens, UniProt P78348)", "T3 sequence (P78348 1-528)": "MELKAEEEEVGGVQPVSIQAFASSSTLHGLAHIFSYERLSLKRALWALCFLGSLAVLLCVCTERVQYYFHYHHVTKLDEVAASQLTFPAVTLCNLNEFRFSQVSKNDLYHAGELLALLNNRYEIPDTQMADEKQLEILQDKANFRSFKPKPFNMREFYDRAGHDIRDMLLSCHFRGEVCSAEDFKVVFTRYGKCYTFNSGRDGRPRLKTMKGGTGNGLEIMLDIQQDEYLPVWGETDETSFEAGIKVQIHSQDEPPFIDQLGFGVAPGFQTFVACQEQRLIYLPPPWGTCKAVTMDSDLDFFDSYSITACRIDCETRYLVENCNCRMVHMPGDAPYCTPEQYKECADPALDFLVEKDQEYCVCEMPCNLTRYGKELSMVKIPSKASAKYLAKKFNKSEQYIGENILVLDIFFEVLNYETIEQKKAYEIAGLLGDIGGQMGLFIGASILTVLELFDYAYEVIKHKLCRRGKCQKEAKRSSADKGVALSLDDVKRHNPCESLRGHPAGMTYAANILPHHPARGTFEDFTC", "assay": "Blockade of ASIC 1a current expressed in CHO cells", "format": "cell-based", "set-up": "expressed in transfected cells; host or cells: CHO", "details": "for block of ASIC1a current: CHO cells, FIG. 16"}, "[3]": {"system": "cultured cortical neurons", "assay": "LDH release after combined 1 hr OGD/acidosis in cortical neurons", "format": "cell-based, mouse", "details": "trolox 500 µM, L-NAME 300 µM; n=8-11", "description": "(§1) Background absorbance at 620 was subtracted.\nNeurons were washed three times and incubated with glucose-free ECF at pH 7.4 or 6.0 in an anaerobic chamber (Model 1025, Forma Scientific) with an atmosphere of 85% N2, 10% H2, and 5% CO2 at 35° C. Oxygen-glucose deprivation (OGD) was terminated after 1 hr by replacing the glucose-free ECF with Neurobasal medium and incubating the cultures in a normal cell culture incubator.\nAs the magnitude of ASIC currents may be potentiated by cellular and neurochemical components of brain ischemia-cell swelling, arachidonic acid, and lactate and, more importantly, the desensitization of ASIC currents may be reduced dramatically by modeled ischemia (see FIGS. 5A and 5C), activation of ASICs in ischemic conditions is expected to produce greater neuronal injury. To test this hypothesis, neurons were subjected to 1 hr acid treatment under oxygen and glucose deprivation (OGD). MK801, CNQX, and nimodipine were added to all solutions to inhibit voltage-gated Ca^2+ channels and glutamate receptor-mediated cell injury associated with OGD. One hour incubation with pH 7.4 ECF under OGD conditions induced only 27.1% ± 3.5% of maximal LDH release at 24 hr (n=5, FIG. 9D)."}, "ASIC1^-/- neurons": {"system": "ASIC1^-/- neurons", "format": "cell-based, mouse", "details": "1 hr treatment with 1 mM NMDA+10 µM glycine in Mg^2+-free pH 7.4 ECF; n=4", "description": "Following anesthesia with halothane, cerebral cortices were dissected from E16 Swiss mice or P1 ASIC1+/+ and ASIC1-/- mice and incubated with 0.05% trypsin-EDTA for 10 min at 37° C. Tissues were then triturated with fire-polished glass pipettes and plated on poly-L-ornithine-coated 24-well plates or 25x25 mm glass coverslips at a density of 2.5x10^5 cells per well or 10^6 cells per coverslip. Neurons were cultured with MEM supplemented with 10% horse serum (for E16 cultures) or Neurobasal medium supplemented with B27 (for PI cultures) and used for electrophysiology and toxicity studies after 12 days. Glial growth was suppressed by addition of 5-fluoro-2-deoxyuridine and uridine, yielding cultured cells with 90% neurons as determined by NeuN and GFAP staining (data not shown).\nas §1\n. […] . In contrast to acid incubation, 1 hr treatment of ASIC1^-/- neurons with 1 mM NMDA+10 µM glycine (in Mg^2+-free [pH 7.4] ECF) induced 84.8% ± 1.4% of maximal LDH release at 24 hr (n=4, FIG. 9C), indicating normal response to other cell injury processes."}, "ASIC1a [4]": {"target": "T3, ASIC1a", "assay": "Inhibition of the ASIC1a channel (IC50 from Table 1, cell system not given)", "format": "cell-based", "details": "quoted in the text from Table 1"}, "[5]": {"details": "0.9% saline; cited from earlier work"}, "[6]": {"assay": "Mouse 60 min MCAO, memantine i.p. with or without PcTX venom i.c.v., infarct volume", "format": "in vivo, mice"}, "cortical neurons": {"system": "cortical neurons", "assay": "Fura-2 Ca^2+ imaging of acid-induced increase of [Ca^2+]i in cortical neurons", "format": "cell-based, mouse", "details": "preincubation with 1 µM; n=6"}, "[7]": {"details": "read-out: Inhibition of the ASIC1a channel, Neuron (-60 mV)"}, "[8]": {"details": "Neuron (-60 mV), read-out: Inhibition of the ASIC1a channel, Neuron (-60 mV)"}}, "note": "“And” between values parts separate entries of the source, which are not always exact repeats. Equal values may be shown once. Where a name gives a salt, the structure may show the parent alone. Read-outs that look alike come from different tables or passages of the source.", "data": [{"compound": "CN(C)c1nc(N)c(C(=O)NC(=N)N)nc1Cl", "note": "[5-(N, N-Dimenthyl)amiloride hydrochloride]", "values": [{"measurement": "IC50", "setting": "ASIC1a channel; [7]", "value": "14.8 ± 7.1", "unit": "µM"}]}, {"compound": "CC(C)CN(C)c1nc(N)c(C(=O)N=C(N)N)nc1Cl", "note": "[5-(N-Methyl-N-isobutyl)-amiloride]", "values": [{"measurement": "IC50", "setting": "ASIC1a channel; [7]", "value": 24.3, "unit": "µM"}]}, {"compound": "CC(C)COCC(CN(Cc1ccccc1)c1ccccc1)N1CCCC1", "note": "(stereo not drawn) [Bepridil, bepridil]", "values": [{"measurement": "IC50", "setting": "ASIC1a channel; [8]", "value": "82.9 ± 5.2", "unit": "µM"}, {"measurement": "infarct volume", "setting": "[1]", "value": "effectively reduce infarct volume"}]}, {"compound": "CCN(c1nc(N)c(C(=O)NC(=N)N)nc1Cl)C(C)C", "note": "[EIPA, 5-(N-ethyl-N-isopropyl) amiloride]", "values": [{"measurement": "IC50", "setting": "ASIC2a; CHO 2a, read-out: Inhibition, CHO 2a", "value": 31, "unit": "µM"}, {"measurement": "block of ASIC2a current", "setting": "ASIC2a; CHO cells, FIG. 17", "value": "dose-dependent"}, {"measurement": "IC50", "setting": "ASIC1a channel; Neuron (-20 mV), read-out: Inhibition of the ASIC1a channel, Neuron (-20 mV)", "value": "32.2 ± 6.3", "unit": "µM"}, {"measurement": "IC50", "setting": "ASIC1a channel; [8]", "value": "43.3 ± 1.43", "unit": "µM"}, {"measurement": "IC50", "setting": "Knockout 1a", "value": "35.9 ± 2.1", "unit": "µM"}, {"measurement": "IC50", "setting": "Knockout 2a", "value": "20.1 ± 2.2", "unit": "µM"}, {"measurement": "IC50", "setting": "ASIC1a [2]; CHO 1a, read-out: Inhibition of the ASIC1a channel, CHO 1a", "value": "111 ± 30", "unit": "µM"}, {"measurement": "block of ASIC1a current", "setting": "ASIC1a [2]", "value": "dose-dependent"}]}, {"compound": "COC(=O)[C@@H](N)CCCNC(=N)N[N+](=O)[O-]", "note": "[L-NAME]", "values": [{"measurement": "LDH release induced by combined 1 hr OGD/acidosis", "setting": "[3]", "value": "not inhibited"}]}, {"compound": "CN[C@H](CC(=O)O)C(=O)O", "note": "[NMDA]", "values": [{"measurement": "maximal LDH release at 24 hr", "setting": "ASIC1^-/- neurons", "value": "84.8% ± 1.4%"}]}, {"compound": "NC(=NCc1ccccc1)NC(=O)c1nc(Cl)c(N)nc1N", "note": "[benzamil]", "values": [{"measurement": "IC50", "setting": "ASIC1a [4]", "value": "4.9 µM and 4 to 8 µM"}, {"measurement": "reported solubility", "setting": "[5]", "value": "0.4 mg/ml and 1.7 mM"}]}, {"compound": "CC12CC3CC(C)(C1)CC(N)(C3)C2", "note": "[memantine]", "values": [{"measurement": "infarct volume", "setting": "[6]; ASIC1^-/- mice, memantine i.p., n=5", "value": "27.7 ± 1.6", "unit": "mm^3"}, {"measurement": "infarct volume", "setting": "[6]; ASIC^+/+ mice, 10 mg/kg memantine i.p., saline 101.4 ± 9.4, n=5", "value": "61.6 ± 12.7", "unit": "mm^3"}]}, {"compound": "NC(=Nc1ccccc1)NC(=O)c1nc(Cl)c(N)nc1N", "note": "[phenamil]", "values": [{"measurement": "block of ASIC1a current", "setting": "ASIC1a [2]", "value": "dose-dependent"}]}, {"compound": "C/C=C(/C)C(=O)O[C@H]1C(C)=C2[C@H]([C@@H]1OC(=O)CCCCCCC)[C@@](C)(OC(C)=O)C[C@H](OC(=O)CCC)[C@@]1(O)[C@H]2OC(=O)[C@@]1(C)O", "note": "[thapsigargin]", "values": [{"measurement": "sustained component of Ca^2+ increase", "setting": "cortical neurons", "value": "partially inhibited"}]}, {"compound": "Cc1c(C)c2c(c(C)c1O)CCC(C)(C(=O)O)O2", "note": "(stereo not drawn) [trolox]", "values": [{"measurement": "LDH release induced by combined 1 hr OGD/acidosis", "setting": "[3]", "value": "not inhibited"}]}]}
